In patent US6537992B2, “Regulation of organic nitrate tolerance” (priority 2001, dated 2003):

Tests used:
[1] = Standing systolic blood pressure and heart rate in normal volunteers during transdermal GTN, with oral folate or placebo; assay type: in vivo, human; details: acute transdermal GTN 0.6 mg/hr, 3 hours after initial patch application, both placebo and folate groups
Method: (§1) Normal volunteers (n=20) were randomized in a double bind, placebo-controlled fashion to either oral folate (5 mg per day) or placebo. After 1 week of this double-blind therapy, subjects returned to the laboratory. At that time, measures of standing systolic blood pressure and heart rate were recorded. Subsequently, measurements of forearm blood flow were made at rest and in response to sublingual nitroglycerin (0.6 mg). […] A Randomized Double-blind, Placebo-controlled Study, J Cardiovasc Pharm. 1999;34:645-659.
(§2) Subsequently all subjects all received transdermal GTN (0.6 mg/hr). Standing heart rate and blood pressure responses were repeated 3 hours after initial patch application. Subjects were discharged from the laboratory with instructions to take transdermal GTN continuously for the next 5 to 7 days, changing the patch each day at 0800 hours. After 5 to 7 days, subjects returned to the laboratory where measures of standing systolic blood pressure and heart rate as well as forearm blood flow were repeated.

[2] = Forearm blood flow by strain gauge plethysmography at rest and in response to sublingual nitroglycerin; assay type: in vivo, human; details: sublingual GTN 0.6 mg, before continuous GTN therapy, both groups
Method: as §1, §2

O=[N+]([O-])OCC(CO[N+](=O)[O-])O[N+](=O)[O-] [GTN, glyceryl trinitrate]
heart rate after acute administration [1]: significant increase
systolic blood pressure after acute administration [1]: significant fall
forearm blood flow after sublingual administration [2]: similar, significant increase
